{"source": "patent US20230087844A1", "about": "“USE OF N2-QUINCLINE OR ISOQUINOLINE SUBSTITUTED PURINE DERIVATIVES IN CANCER TREATMENT” (SHANGHAI HUAYU BIOTECHNOLOGY CO., LTD., priority 2020, published 2023)", "key": {"HL-60": {"test_system": "HL-60", "test": "MTT tumor cell proliferation, HL-60", "format": "cell-based", "conditions": "Homo sapiens; HL-60, Acute promyelocytic leukemia, 72 hour", "method": "(§1) as an exemplary compound of formula (I), was tested for its inhibitory effect on tumor cell proliferation in a MTT assay.\n(§2) Briefly, cells at the log phase were collected, suspended in the cell culture medium at 4*10^4/ml density, and plated in 96-well plates, 90 μl per well. The plates were kept in a 5% CO2 and 37° C. incubator for 2 hours, and then added with 100 μg/ml, 10 μg/ml, 1 μg/ml, 0.1 μg/ml, 0.01 μg/ml or 0.001 μg/ml Compound A, 4 replicates for each cell at each compound concentration. DMSO was used in the positive control group, and another negative group was also set. After 72 hour incubation in the same incubator, 20 μl 5 mg/ml MTT reagent was added to each well. After another 4 hour incubation, each well was added with 100 μl SDS and further incubated for 12 hours. Absorbance at 570 nm was read in a reader, and IC50 was calculated."}, "U87": {"test_system": "U87", "test": "MTT tumor cell proliferation, U87", "format": "cell-based", "conditions": "Homo sapiens, U-87 MG; U87, Brain glioma, 72 hour", "method": "as §1, §2"}, "[1]": {"test_system": "Colon26 murine colon cancer cells", "test": "Colon26 colon cancer growth in mice", "format": "in vivo, F1 mice", "conditions": "D1-7; for TGI / Tumor weight: Day 8", "method": "F1 mice, 18-22 g, purchased from Shanghai Bi-Kai Laboratory Animal Co., Ltd, were subcutaneously inoculated with Colon26 murine colon cancer cells (from Cell Bank, Chinese Academy of Sciences) at the right axilla. […] Tumor growth inhibition (TGI) was calculated."}, "BT-474": {"test_system": "BT-474", "test": "MTT tumor cell proliferation, BT-474", "format": "cell-based", "conditions": "Homo sapiens; BT-474, Breast cancer, 72 hour", "method": "as §1, §2"}, "[2]": {"test_system": "Ls-174t human colon cancer cells", "test": "Ls-174t colon cancer xenograft in mice", "format": "in vivo, BALB/cA-nude mice", "conditions": "for T/C: D14", "from_the_text": "Mice were sacrificed on Day-14."}, "H441": {"test_system": "H441", "test": "MTT tumor cell proliferation, H441", "format": "cell-based", "conditions": "Homo sapiens, NCI-H441; H441, Lung cancer, 72 hour", "method": "as §1, §2"}, "[3]": {"test_system": "SGC-7901 human gastric cancer cells", "test": "SGC-7901 gastric cancer xenograft in mice", "conditions": "D0, 3, 6, 9, 12; for T/C: D18", "quoted_text": "Mice body weights and tumor sizes were measured 2 to 3 times a week. The tumor volume (V) was calculated as (length× width^2)/2. T/C (%) was calculated as (T-T0)/(C-C0)×100, wherein T and C represented the tumor volumes in the administration group and the vehicle group respectively at the end of the experiment, while T0 and C0 represented the tumor volumes in the administration group and the vehicle group respectively at the beginning of the experiment. And RTV was calculated as (Tumor volume at Day N/Tumor volume at Day 0).\nBALB/cA-nude mice, 5-6 weeks old, purchased from Shanghai SLAC Laboratory Animal Co., Ltd, were subcutaneously inoculated with SGC-7901 human gastric cancer cells (from Cell Bank, Chinese Academy of Sciences).\n(§3) Mice body weights and tumor sizes were measured 2 to 3 times a week. The tumor volume, T/C and RTV were calculated as described above. Mice were sacrificed on Day 18."}, "[4]": {"test_system": "A549 human non-small cell lung cancer cells", "test": "A549 non-small cell lung cancer xenograft in mice", "conditions": "D0, 3, 6, 9; for T/C: D18", "quoted_text": "Mice body weights and tumor sizes were measured 2 to 3 times a week. The tumor volume (V) was calculated as (length× width^2)/2. T/C (%) was calculated as (T-T0)/(C-C0)×100, wherein T and C represented the tumor volumes in the administration group and the vehicle group respectively at the end of the experiment, while T0 and C0 represented the tumor volumes in the administration group and the vehicle group respectively at the beginning of the experiment. And RTV was calculated as (Tumor volume at Day N/Tumor volume at Day 0). Mice were sacrificed on Day-14.\nBALB/cA-nude mice, 5-6 weeks old, purchased from Shanghai SLAC Laboratory Animal Co., Ltd, were subcutaneously inoculated with A549 human non-small cell lung cancer cells (from ATCC).\nas §3"}}, "note": "Marks after values point to notes of the source that are not given here.", "data": [{"smiles": "c1cnc2ccc(Nc3nc(NC4CC4)c4nc[nH]c4n3)cc2c1", "note": "[Compound A]", "values": [{"measurement": "IC50", "setting": "HL-60", "value": "0.5 ± 0.3", "unit": "µM"}, {"measurement": "IC50", "setting": "U87", "value": "9.7 ± 7", "unit": "µM"}, {"measurement": "Body weight (without tumor) at D8", "setting": "[1]; 30 mg/kg P.O.", "value": 21.57, "unit": "g"}, {"measurement": "TGI", "setting": "[1]; 30 mg/kg P.O.", "value": 31.88, "unit": "%"}, {"measurement": "Tumor weight", "setting": "[1]; 30 mg/kg P.O.", "value": 1.39, "unit": "g"}, {"measurement": "Body weight (without tumor) at D8", "setting": "[1]; 60 mg/kg P.O.", "value": 15.96, "unit": "g"}, {"measurement": "TGI", "setting": "[1]; 60 mg/kg P.O.", "value": 76.12, "unit": "%"}, {"measurement": "Tumor weight", "setting": "[1]; 60 mg/kg P.O.", "value": 0.49, "unit": "g"}, {"measurement": "IC50", "setting": "BT-474", "value": "4.4 ± 0.4", "unit": "µM"}, {"measurement": "Body weight (without tumor) D0", "setting": "[2]; 25 mg/kg P.O., D0, 2, 4, 8, 10", "value": 23.7, "unit": "g"}, {"measurement": "Body weight (without tumor) D14", "setting": "[2]; 25 mg/kg P.O., D0, 2, 4, 8, 10", "value": 17.7, "unit": "g"}, {"measurement": "RTV at D14", "setting": "[2]; 25 mg/kg P.O., D0, 2, 4, 8, 10", "value": "13.91 ± 2.39"}, {"measurement": "Tumor volume D0", "setting": "[2]; 25 mg/kg P.O., D0, 2, 4, 8, 10", "value": "145 ± 19", "unit": "mm^3"}, {"measurement": "Tumor volume D14", "setting": "[2]; 25 mg/kg P.O., D0, 2, 4, 8, 10", "value": "1997 ± 316", "unit": "mm^3"}, {"measurement": "T/C", "setting": "[2]; 25 mg/kg P.O., D0, 2, 4, 8, 10", "value": 66, "unit": "%"}, {"measurement": "Body weight (without tumor) D0", "setting": "[2]; 50 mg/kg P.O., D0, 3, 6, 9", "value": 23.4, "unit": "g"}, {"measurement": "Body weight (without tumor) D14", "setting": "[2]; 50 mg/kg P.O., D0, 3, 6, 9", "value": 16.2, "unit": "g"}, {"measurement": "RTV at D14", "setting": "[2]; 50 mg/kg P.O., D0, 3, 6, 9", "value": "8.21 ± 3.55"}, {"measurement": "Tumor volume D0", "setting": "[2]; 50 mg/kg P.O., D0, 3, 6, 9", "value": "147 ± 22", "unit": "mm^3"}, {"measurement": "Tumor volume D14", "setting": "[2]; 50 mg/kg P.O., D0, 3, 6, 9", "value": "1176 ± 450", "unit": "mm^3"}, {"measurement": "T/C", "setting": "[2]; 50 mg/kg P.O., D0, 3, 6, 9", "value": "38.9* %"}, {"measurement": "Body weight (without tumor) D0", "setting": "[2]; 50 mg/kg P.O., D0, 4, 8", "value": 23.3, "unit": "g"}, {"measurement": "Body weight (without tumor) D14", "setting": "[2]; 50 mg/kg P.O., D0, 4, 8", "value": 16.9, "unit": "g"}, {"measurement": "RTV at D14", "setting": "[2]; 50 mg/kg P.O., D0, 4, 8", "value": "10.25 ± 2.39"}, {"measurement": "Tumor volume D0", "setting": "[2]; 50 mg/kg P.O., D0, 4, 8", "value": "149 ± 29", "unit": "mm^3"}, {"measurement": "Tumor volume D14", "setting": "[2]; 50 mg/kg P.O., D0, 4, 8", "value": "1497 ± 282", "unit": "mm^3"}, {"measurement": "T/C", "setting": "[2]; 50 mg/kg P.O., D0, 4, 8", "value": "48.6* %"}, {"measurement": "IC50", "setting": "H441", "value": "15.9 ± 9.5", "unit": "µM"}, {"measurement": "RTV at D18", "setting": "[3]; 15 mg/kg P.O.", "value": "5.57 ± 2.74"}, {"measurement": "Tumor volume D0", "setting": "[3]; 15 mg/kg P.O.", "value": "162 ± 32", "unit": "mm^3"}, {"measurement": "Tumor volume D18", "setting": "[3]; 15 mg/kg P.O.", "value": "845 ± 349", "unit": "mm^3"}, {"measurement": "T/C", "setting": "[3]; 15 mg/kg P.O.", "value": 68.2, "unit": "%"}, {"measurement": "RTV at D18", "setting": "[3]; 30 mg/kg P.O.", "value": "3.73 ± 1.16"}, {"measurement": "Tumor volume D0", "setting": "[3]; 30 mg/kg P.O.", "value": "197 ± 45", "unit": "mm^3"}, {"measurement": "Tumor volume D18", "setting": "[3]; 30 mg/kg P.O.", "value": "701 ± 142", "unit": "mm^3"}, {"measurement": "T/C", "setting": "[3]; 30 mg/kg P.O.", "value": "45.7* %"}, {"measurement": "RTV at D18", "setting": "[3]; 60 mg/kg P.O.", "value": "2.58 ± 1.07"}, {"measurement": "Tumor volume D0", "setting": "[3]; 60 mg/kg P.O.", "value": "215 ± 49", "unit": "mm^3"}, {"measurement": "Tumor volume D18", "setting": "[3]; 60 mg/kg P.O.", "value": "545 ± 233", "unit": "mm^3"}, {"measurement": "T/C", "setting": "[3]; 60 mg/kg P.O.", "value": "31.6* %"}, {"measurement": "RTV at D18", "setting": "[4]; 15 mg/kg P.O.", "value": "18.67 ± 12.89"}, {"measurement": "Tumor volume D0", "setting": "[4]; 15 mg/kg P.O.", "value": "118 ± 21", "unit": "mm^3"}, {"measurement": "Tumor volume D18", "setting": "[4]; 15 mg/kg P.O.", "value": "2135 ± 1279", "unit": "mm^3"}, {"measurement": "T/C", "setting": "[4]; 15 mg/kg P.O.", "value": 70.8, "unit": "%"}, {"measurement": "RTV at D18", "setting": "[4]; 30 mg/kg P.O.", "value": "12.58 ± 4.38"}, {"measurement": "Tumor volume D0", "setting": "[4]; 30 mg/kg P.O.", "value": "113 ± 19", "unit": "mm^3"}, {"measurement": "Tumor volume D18", "setting": "[4]; 30 mg/kg P.O.", "value": "1449 ± 608", "unit": "mm^3"}, {"measurement": "T/C", "setting": "[4]; 30 mg/kg P.O.", "value": "47.7* %"}, {"measurement": "RTV at D18", "setting": "[4]; 60 mg/kg P.O.", "value": "9.15 ± 5.33"}, {"measurement": "Tumor volume D0", "setting": "[4]; 60 mg/kg P.O.", "value": "110 ± 11", "unit": "mm^3"}, {"measurement": "Tumor volume D18", "setting": "[4]; 60 mg/kg P.O.", "value": "1039 ± 669", "unit": "mm^3"}, {"measurement": "T/C", "setting": "[4]; 60 mg/kg P.O.", "value": "34.7* %"}]}]}
